Experiments:
HeLa cell culture = experiment: Phototoxicity (photodynamic activity), 3.5 h incubation, 3.3 joule/cm^2; assay type: cell-based; parameters: number of HELA cells (relative to the control): unit not given here; conditions: incubation 3.5 hours
Method: To examine the photodynamic effects of a photosensitizer on a HeLa cell culture, the photosensitizer solution was added to the nutrient media at a final concentration of 0.1, 0.5, 1.0, 5.0 or 10 mcg/ml on day 3 after transplanting the cell culture into flasks. The flasks were wrapped with a light protecting cover, and incubated at 37° C. for 3.5 hours. Then, the cells were washed with Hank's solution, and exposed on ice by a laser medical device “LD 680-2000” (wavelength: 670-690 nm) at a dose of 3.3 joule/cm^2. After 20-24 hours, the available cell monolayer was dispersed using a 0.02%-Versene solution, and the number of tumor cells was calculated in Goriaev's chamber. For each point, 3 flasks were used.

HeLa tumor cells = experiment: Cytotoxicity (antiproliferative assay) in the absence of light exposure; assay type: cell-based; conditions: 24 hr incubation
Method: Cytotoxicity was analyzed, considering the intensity of proliferative processes in cells, photosensitizer concentration, and dose of optical power. For each point, 3 flasks with cell monolayer were used.
The monolayer culture of HeLa tumor cells was chosen and used as the cell.
The culture of HeLa tumor cells was grown in nutrient medium 199 or in nutrient medium containing hemohydrolyzate supplemented with 10% fetal bovine serum and […] of kanamycin.
On day 4 after the cell culture was inoculated in the flasks (100,000 cells per 2.0 ml of nutrient medium), the photosensitizer was added at a concentration of 1, 2.5, 5.0, 10.0, 20.0, or 30.0 mg/ml.
Flasks with light-protective cover (dark cytotoxicity) were incubated at 37.5° C. for 1 hour. The cells were washed with Hank's solution 4 times. 2.0 ml of fresh nutrient medium were added, and the cells were irradiated at the temperature of melting ice for 5, 10, 15 or 20 mins by the light flux of a “METALAZ” laser medical device (wavelength: 627.8 nm, 578.2 or 510.6 nm) or “LD 680-2000” (wavelength: 670-690 nm), depending on the wavelength of maximum spectral absorption of the studied photosensitizer, at a dose of 40 J/cm^2. After 20-24 hours, the number of tumor cell was counted in Goriaev's chamber.

Hela cells [1] = experiment: Accumulation in Hela cells; assay type: cell-based; conditions: 2×10^−7 M/l, 37° C.
Method: The cellular accumulation and the targeted delivery of the photoactive compounds were investigated using Hela cells, which is one of the numerous tumor cell types that overexpress folate receptors.
Cells were cultivated for 3 days in medium 199, and transferred to Hank's solution/medium 199 (9/1). After 3 hours, the cell were collected by trypsin treatment from the substrate and placed in Hank's solution (10^5 κπ/ml). To cell suspensions, chlorin e6 conjugates were added at a concentration of 2×10^−7 M/l, and incubated at 37° C. After 1, 5, 10, 15, and 24 hours, the samples were centrifuged, the pellet was washed with the cooled Hank's solution, and transferred to Hank's solution at a concentration being equal to that in the initial suspension.

Hela cells [2] = experiment: Phototoxicity, 24 h incubation, 1.5-15 joule/cm^2; assay type: cell-based; conditions: 670-690 nm
Method: In other experiment, the cells were incubated with photosensitizers at 37° C. for 24 hours, and irradiated by exposed on ice by a laser medical device “LD 680-2000” (wavelength of 670-690 nm) in a dose of 1.5-15 joule/cm^2.

[3] = test system: transporter of restored vectors (TRV); conditions: cited from earlier work

C=Cc1c(C)c2cc3nc(c(CC(=O)O)c4[nH]c(cc5nc(cc1[nH]2)C(C)=C5CC)c(C)c4C(=O)O)C(CCC(=O)O)C3C (stereo not drawn) [chlorin e6, 13-carboxy-17-[2-carboxyethyl]-15-carboxymethyl-17,18-trans-dihydro-3-vinyl-8-ethyl-2,7,12,18-tetramethylporphyrin]
number of HELA cells (relative to the control) (HeLa cell culture; photoexposure 3.3 joule/cm^2, conc. 0.1 mcg/ml): 87.1 | number of HELA cells (relative to the control) (HeLa cell culture; photoexposure 3.3 joule/cm^2, conc. 0.5 mcg/ml): 83.6 | number of HELA cells (relative to the control) (HeLa cell culture; photoexposure 3.3 joule/cm^2, conc. 1.0 mcg/ml): 64.7 | number of HELA cells (relative to the control) (HeLa cell culture; photoexposure 3.3 joule/cm^2, conc. 5.0 mcg/ml): 19 | number of HELA cells (relative to the control) (HeLa cell culture; photoexposure 3.3 joule/cm^2, conc. 10.0 mcg/ml): 3.8 | cell survival rates (HeLa tumor cells): about 90% | concentration in Hela cells (Hela cells [1]; incubation time 1 hours): 0.86 relative units/10^4cl. | concentration in Hela cells (Hela cells [1]; incubation time 5 hours): 1.45 relative units/10^4cl. | concentration in Hela cells (Hela cells [1]; incubation time 10 hours): 1.72 relative units/10^4cl. | concentration in Hela cells (Hela cells [1]; incubation time 15 hours): 0.81 relative units/10^4cl. | concentration in Hela cells (Hela cells [1]; incubation time 24 hours): 0.40 relative units/10^4cl. | phototoxicity / photosensitivity in survival test (Hela cells [2]): little phototoxicity

Nc1nc(O)c2nc(CNc3ccc(C(=O)N[C@@H](CCC(=O)O)C(=O)O)cc3)cnc2n1 [folic acid, N-[4(2-Amino-4-hydroxypteridin-6-ylmethylamino)benzoyl]-L(+)-glutamic acid]
affinity of the carrier (TRV) [3]: about 200 μM

Source: US20120035180A1, “PHARMACEUTICAL COMPOSITION FOR TREATING CANCER COMPRISING CHLORIN E6-FOLIC ACID CONJUGATE COMPOUND AND CHITOSAN” (priority 2009, published 2012)
